Results reported in US6878751B1, “Administration of resveratrol to treat inflammatory respiratory disorders” (Imperial College of Science Technology and Medicine, priority 2000, dated 2005).

Key:
Patients with asthma [1] = test: Oral resveratrol clinical evaluation in asthma (Example 3); format: in vivo, human; conditions: oral, 200, 2000 or 3000 mg/day, about six months
Protocol: Resveratrol is evaluated clinically for efficacy in treating asthma. The methods of the following references are generally used in the evaluation of asthmatic disease: Wohl et al. (2000) N. Engl. J. Med. 343(15):1113-4; Agertoft et al. (2000) N. Engl. J. Med. 343(15):1064-9. Patients with asthma are treated once or more per day with gelatin capsules containing resveratrol. Patients are divided randomly and blindly into four approximately equal groups that receive either 0 (placebo), 200, 2000, or 3000 mg/day resveratrol for about six months in oral doses of 0, 50, 500, or 750 mg administered 4 times daily for about six months. Patients are medically monitored for clinical symptoms of asthma throughout the study, including frequency and severity of acute asthma attacks. […] In addition exhaled nitric oxide (NO) and carbon monoxide (CO) levels may be measured at more frequent intervals, such as every other week. Forced expiratory volume (FEV) and forced inspiratory volume (FIV) are also evaluated to measure airway patency as a direct measure of clinical morbidity and to determine correlation the histopathologic and other indicators of clinical disease, such as exhaled NO Immunhistopathologic examination of lung tissue biopsy samples taken at the same intervals as the blood samples are also examined for histopathologic evidence of extent and histology of inflammation.

[2] = tested on: IL-8 release, BEAS-2B cells; test: IL-8 release (ELISA) in IL-1β stimulated BEAS-2B cells; format: cell-based; conditions: Homo sapiens, 1 ng/ml IL-1β, read-out: EC50 for inhibition of the release of IL-8
Protocol: The human airway epithelial cell line A549 may be employed to study resveratrol inhibition of the release of IL-8 (interleukin 8) and GM-CSF (granulocyte macrophage-colony stimulating factor) by a 1 ng/ml stimulation with IL-1β (interleukin 1β). A549 cells, BEAS-2B cells and 16HBE-16o^− cells were stimulated with 1 ng/ml levels of IL-1β in the presence of resveratrol.
Cells, including the A549 cells, were cultured in Dulbecco's modified Eagle's medium (DMEM) 10% (v/v) fetal calf serum (FCS), 100 μg/ml penicillin and 100 μg/ml streptomycin. IL-8 release was measured by commercially available ELISA kit (R&D Systems).

[3] = tested on: Steroid naive patients suffering from COPD; test: Oral or inhaled resveratrol vs inhaled glucocorticoids in COPD, steroid naive patients (Example 5); format: in vivo, human; conditions: 12 to 24 months
Excerpt: Steroid naive patients suffering from different COPDs patients are selected and divided into populations according to the COPD. Chronic bronchitis populations and emphysema populations are appropriately studied. The populations are divided in terms of progression of their COPD into subpopulations early or mild, mid-stage or moderate, and advanced impairment of lung function. The study is generally patterned after the asthma studies with modifications appropriate to the clinical and histopathologic evaluation of COPD disease, and the references listed in the preceding examples may be applied as appropriate. One major difference is that the COPD study should last for 1 to 2 years or longer, because of the chronic nature of COPD. Each subpopulation is divided equally and randomly into three groups. […]
Patients are medically monitored for clinical symptoms of COPD throughout the study, including frequency and severity of hypoxemic and respiratiry acidotic exacerbations. […] In addition exhaled nitric oxide (NO) and carbon monoxide (CO) levels may be measured at more frequent intervals, such as every other week. Forced expiratory volume (FEV) and forced inspiratory volume (FIV) are also evaluated to measure airway patency as a direct measure of clinical morbidity and to determine correlation the histopathologic and other indicators of clinical disease. […]

Patients with asthma [4] = test: Pulmonary resveratrol clinical evaluation in asthma (Example 4); format: in vivo, human; conditions: inhaled, 4, 8 or 20 mg/day, about six months
Protocol: Resveratrol is evaluated clinically for efficacy in treating asthma when administered pulmonarily. The methods of the following references are generally used in the evaluation of asthmatic disease: Wohl et al. (2000) N. Engl. J. Med. 343(15):1113-4; Agertoft et al. (2000) N. Engl. J. Med 343(15):1064-9. Patients with asthma are treated once or more per day with inhalator delivered pulmonary administered doses of resveratrol. Patients are divided randomly and blindly into approximately equal groups that receive either 0 (placebo), 4, 8, or 20 mg/day resveratrol in inhaled doses of 0, 1, 2, or 5 mg administered 4 times daily for about six months. Patients are medically monitored for clinical symptoms of asthma throughout the study, including frequency and severity of acute asthma attacks. […] In addition exhaled nitric oxide (NO) and carbon monoxide (CO) levels may be measured at more frequent intervals, such as every other week. Forced expiratory volume (FEV) and forced inspiratory volume (FIV) are also evaluated to measure airway patency as a direct measure of clinical morbidity and to determine correlation the histopathologic and other indicators of clinical disease, such as exhaled NO Immunhistopathologic examination of lung tissue biopsy samples taken at the same intervals as the blood samples are also examined for histopathologic evidence of extent and histology of inflammation.

Oc1ccc(/C=C/c2cc(O)cc(O)c2)cc1 [Resveratrol, 3,5,4′-trihydroxystilbene]
efficacy in treating asthma (Patients with asthma [1]): effective for treating asthma
EC50 [2]: 111 ± 2.9 µM
efficacy in treating COPD compared with inhaled steroids ([3]; oral or pulmonary resveratrol vs pulmonary budenoside): more effective for treating COPD than inhaled steroids
systemic effects compared with inhaled glucocorticosteroids ([3]; oral or pulmonary resveratrol): fewer systemic effects
efficacy in treating asthma (Patients with asthma [4]): effective for treating asthma
